PubChem BioAssay (NCI)
Where “and” joins values, the source holds several entries; their conditions need not be identical. Equal values may be shown once.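 Growth conditions: 96-well plates. Treatment: test compound, 48 hours, 5 concentrations. Analysis: linear interpolation between bracketing concentrations; unreached endpoints set to highest concentration. Here, GI50 denotes the concentration required for 50% inhibition of growth. TGI denotes the concentration required for complete inhibition of growth.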 Numbered stars: 1 amine (or outer) side, 2 acyl side, 3 side chain; on linkers, the order of the positions; unused ones are H or OH. Bridge positions count the residues as written; N and C are the ends. Square brackets hold non-standard residues; d marks the D form. Peptide text beside a SMILES is read from it. I, II: the chains in the order shown. Actinocin(1to9) = Cc1c2oc3c(C)ccc(C(=O)[*:2])c3nc-2c(C(=O)[*:1])c(N)c1=O; NMeY = CN[CH](Cc1ccc(O)cc1)C(=O)O; Sar = CNCC(=O)O

What was measured:
Assay in all cases: inhibition of tumour cell growth, NCI panel, 48 h
ACHN renal = test system: ACHN renal
BT-549 breast = test system: BT-549 breast
CCRF-CEM leukemia = test system: CCRF-CEM leukemia
DU-145 prostate = test system: DU-145 prostate
KM12 colon = test system: KM12 colon
MCF7 breast = test system: MCF7 breast
RPMI-8226 leukemia = test system: RPMI-8226 leukemia
SF-295 CNS = test system: SF-295 CNS
SW-620 colon = test system: SW-620 colon
TK-10 renal = test system: TK-10 renal

SMILES	GI50 (ACHN renal)	TGI (ACHN renal)	GI50 (BT-549 breast)	TGI (BT-549 breast)	GI50 (CCRF-CEM leukemia)	TGI (CCRF-CEM leukemia)	GI50 (DU-145 prostate)	TGI (DU-145 prostate)	GI50 (KM12 colon)	TGI (KM12 colon)	GI50 (MCF7 breast)	TGI (MCF7 breast)	GI50 (RPMI-8226 leukemia)	TGI (RPMI-8226 leukemia)	GI50 (SF-295 CNS)	TGI (SF-295 CNS)	GI50 (SW-620 colon)	TGI (SW-620 colon)	GI50 (TK-10 renal)	TGI (TK-10 renal)
COc1cc(CNc2oc(-c3ccccc3)c(-c3ccccc3)c2C#N)cc(CN2CCN(C)CC2)c1O	1.8 µM	3.19 µM	1.71 µM	3.42 µM	2.85 µM	10 µM	1.99 µM	4.03 µM	1.9 µM	3.55 µM	1.46 µM	3.07 µM	2.23 µM	6.33 µM	1.87 µM	3.49 µM	1.72 µM	3.33 µM	1.62 µM	3.34 µM
COc1ccc(-c2cc(=O)c3c(O)c(OC)c(OC)c(OC)c3o2)cc1	–	> 100 µM	–	> 100 µM	–	> 100 µM	–	> 100 µM	–	44.4 µM	–	> 100 µM	–	> 100 µM	–	> 100 µM	–	> 100 µM	–	> 100 µM
CC[C@H](C)[C@H](NC(=O)c1cccn1C)C(=O)N(C)[C@H](C[C@@H](OC(C)=O)c1nc(C(=O)N[C@@H](Cc2ccccc2)C[C@H](C)C(=O)OC)cs1)C(C)C	0.502 µM	> 33.3 µM	0.155 µM	2.48 µM	0.138 µM	> 33.3 µM	0.348 µM	> 33.3 µM	0.106 µM	> 33.3 µM	0.0807 µM	> 33.3 µM	0.129 µM	> 18.8 µM	0.0744 µM	–	0.205 µM	> 33.3 µM	2.61 µM	> 33.3 µM
Cc1cc(O)c(-c2ccc([C@@H](C)CN(C)C)cc2)c2c1[nH]c(=O)c1sccc12	0.794 µM	7.95 µM	0.574 µM	3.44 µM	1.77 µM	> 41.9 µM	0.528 µM	53.3 µM	0.482 µM	6.71 µM	0.103 µM	3.14 µM	0.427 µM	2.74 µM	0.73 µM	6.07 µM	0.556 µM	> 61.9 µM	0.647 µM	5.87 µM
N#Cc1cccc(C2C3=C(COC3=O)N(CCO)c3cc4c(cc32)OCO4)c1 (stereo not drawn)	3.53 µM	> 50 µM	1.98 µM	> 50 µM	1.53 µM	> 50 µM	3 µM	> 50 µM	1.74 µM	> 50 µM	0.942 µM	> 50 µM	1.79 µM	> 50 µM	1.17 µM	> 50 µM	1.53 µM	> 50 µM	15.4 µM	> 50 µM
CC(C)(C)OC(=O)Nc1ccc2c(c1)C(NC(=O)Nc1cccc(C#N)c1)CC(C)(C)O2 (stereo not drawn)	3.99 µM	> 100 µM	2.65 µM	18 µM	3.8 µM	> 100 µM	6.5 µM	> 100 µM	3.39 µM	> 100 µM	1.92 µM	30.7 µM	2.63 µM	> 81.9 µM	1.94 µM	> 37.1 µM	3.61 µM	> 100 µM	6.14 µM	> 100 µM
Nc1cccc2c1C(=O)c1cccc(NC(=O)c3ccccc3)c1C2=O	0.59 µM	> 100 µM	0.674 µM	33.9 µM	0.401 µM	> 100 µM	0.561 µM	> 22.6 µM	0.374 µM	> 100 µM	0.258 µM	21.3 µM	0.462 µM	> 100 µM	0.166 µM	1.35 µM	0.267 µM	> 100 µM	1.13 µM	8.13 µM
COc1ccc(CC2C(=O)OC(C)C(NC(=O)c3c4nc5c(C(=O)NC6C(=O)NC(C(C)C)C(=O)N7CCCC7C(=O)N(C)CC(=O)N(C)C(Cc7ccc(OC)cc7)C(=O)OC6C)ccc(C)c5oc-4c(C)c(=O)c3N)C(=O)NC(C(C)C)C(=O)N3CCCC3C(=O)N(C)CC(=O)N2C)cc1 (stereo not drawn) (I: TVP[Sar][NMeY](Me) / II: TVP[Sar][NMeY](Me); ester I:1-I:C, II:1-II:C; linker I:N-II:N via Actinocin(1to9); configuration not given here)	–	> 0.591 µM	–	0.246 µM	< 0.01 µM and 0.00103 µM	< 0.01 µM and 0.0625 µM	–	–	–	–	< 0.01 µM and 0.003 µM	1.29 µM and > 1 µM	–	< 0.01 µM	–	0.28 µM	–	–	–	2.69 µM and 0.969 µM
N#CC1=C(N)NC(=O)NC12Nc1ccccc1N2	> 100 µM	> 100 µM	> 100 µM	> 100 µM	–	–	> 100 µM	> 100 µM	> 100 µM	> 100 µM	> 100 µM	> 100 µM	> 100 µM	> 100 µM	> 100 µM	> 100 µM	> 100 µM	> 100 µM	> 100 µM	> 100 µM
C[C@]12C[C@H](O)[C@H]3[C@@H](CCC4=CC(=O)CC[C@@]43C)[C@@H]1CC[C@@H]2c1csc(-c2ccccc2)n1	–	> 100 µM	–	> 100 µM	–	–	–	> 100 µM	–	> 100 µM	–	> 100 µM	–	> 100 µM	–	> 100 µM	–	> 100 µM	–	> 100 µM
O=C(/C=C/C12c3ccccc3C(c3ccccc31)C1C(=O)NC(=O)C12)c1ccccc1 (stereo not drawn)	1.75 µM	3.59 µM	1.4 µM	2.84 µM	2.17 µM	12.5 µM	1.64 µM	3.51 µM	2.72 µM	11 µM	1.45 µM	7.6 µM	1.51 µM	4.1 µM	–	–	1.92 µM	4.93 µM	2.79 µM	6.34 µM
COc1c(N2CCN(CN3C(=O)C(=Nc4ccc(S(=O)(=O)Nc5ncccn5)cc4)c4cc(Cl)ccc43)C(C)C2)c(F)cc2c(=O)c(C(=O)O)cn(C3CC3)c12 (stereo not drawn)	11.8 µM	> 50 µM	20.4 µM	> 50 µM	–	–	16.3 µM	> 50 µM	9.61 µM	26.8 µM	11.9 µM	44.4 µM	16.8 µM	> 50 µM	24.5 µM	> 50 µM	10.7 µM	44.7 µM	13.3 µM	35.2 µM
COC(=O)N[C@H]1CCc2c(Cl)c(OC)c(OC)c(OC)c2-c2ccc(SC)c(=O)cc21	< 0.01 µM	38.1 µM	< 0.01 µM	1.52 µM	< 0.01 µM	> 82.7 µM	< 0.01 µM	> 100 µM	< 0.01 µM	18.8 µM	< 0.01 µM	> 37.4 µM	< 0.01 µM	> 42.8 µM	–	–	< 0.01 µM	> 100 µM	15.8 µM	> 100 µM
CCCCn1c(=O)c(/C=C/C(=O)/C=C/c2cc3ccccc3n(CCCC)c2=O)cc2ccccc21	1.7 µM	3.07 µM	0.702 µM	2.2 µM	–	–	1.47 µM	2.78 µM	0.678 µM	2.2 µM	0.306 µM	1.84 µM	0.317 µM	0.931 µM	1.84 µM	4.24 µM	0.859 µM	2.84 µM	1.78 µM	3.21 µM
CCOC(=O)/C=C/c1cccc(F)c1	–	> 100 µM	–	> 100 µM	–	> 100 µM	–	> 100 µM	–	> 100 µM	–	> 100 µM	–	> 100 µM	–	–	–	> 100 µM	–	> 100 µM
N#Cc1cc(S(=O)(=O)Nc2nc3ccccc3o2)c(SCc2ccccc2)cc1Cl	32.6 µM	> 100 µM	20.5 µM	41.3 µM	–	–	21 µM	46.7 µM	20.3 µM	40.7 µM	39.8 µM	> 100 µM	30.9 µM	> 100 µM	27.2 µM	65.8 µM	17.9 µM	35.5 µM	52 µM	> 100 µM
CC(C)(C)OC(=O)N[C@@H](Cc1ccccc1)C(=O)N(Cc1ccccc1)C1(C(=O)NCc2ccccc2)CCN(Cc2ccccc2)CC1	–	–	2.11 µM	8 µM	3.35 µM	> 100 µM	5.38 µM	> 100 µM	4.12 µM	> 100 µM	2.82 µM	19.3 µM	2.18 µM	6.98 µM	2.9 µM	> 100 µM	3.49 µM	> 100 µM	3.17 µM	70.3 µM
O=P(O)(O)OCC1OC(n2cnc3c(NCc4ccccc4)ncnc32)C(O)C1O (stereo not drawn)	1.4 µM	> 69.1 µM	0.473 µM	2.49 µM	3.76 µM	> 100 µM	–	–	12.7 µM	> 100 µM	1.31 µM	19.3 µM	3.97 µM	> 52.1 µM	3.09 µM	21.8 µM	1.33 µM	> 73.9 µM	2.15 µM	30.2 µM
COC(=O)[C@H](Cc1cn(C)cn1)NC(=O)[C@H](Cc1ccccc1)NC(=O)Nc1cc(C(F)(F)F)cc(C(F)(F)F)c1	17.2 µM	33.4 µM	19.2 µM	34.5 µM	3.9 µM and 8.86 µM	24.8 µM	13.8 µM	27 µM	13.5 µM	28.2 µM	2.58 µM and 5.03 µM	9.73 µM and 29.4 µM	7.49 µM and 11 µM	31.5 µM	16.4 µM	31.5 µM	14.5 µM	30.6 µM	–	–
